Measured values: ChEMBL document CHEMBL3804794, “Design, synthesis and biological evaluation of pyrazol-furan carboxamide analogues as novel Akt kinase inhibitors” (Eur J Med Chem, 2016)

Legend:
[1] = Antiproliferative activity against human HCT116 cells after 72 hrs by SRB assay; assay type: functional, cell-based; settings: HCT-116, 72 h
[2] = Antiproliferative activity against human OVCAR8 cells after 72 hrs by SRB assay; assay type: functional, cell-based; settings: OVCAR-8, 72 h
[3] = target: T1, RAC-alpha serine/threonine-protein kinase (Homo sapiens, UniProt P31749); test: Inhibition of Akt1 (unknown origin) expressed in Escherichia coli using peptide substrate after 1 hr by HTRF assay
T1 sequence (P31749 whole entry): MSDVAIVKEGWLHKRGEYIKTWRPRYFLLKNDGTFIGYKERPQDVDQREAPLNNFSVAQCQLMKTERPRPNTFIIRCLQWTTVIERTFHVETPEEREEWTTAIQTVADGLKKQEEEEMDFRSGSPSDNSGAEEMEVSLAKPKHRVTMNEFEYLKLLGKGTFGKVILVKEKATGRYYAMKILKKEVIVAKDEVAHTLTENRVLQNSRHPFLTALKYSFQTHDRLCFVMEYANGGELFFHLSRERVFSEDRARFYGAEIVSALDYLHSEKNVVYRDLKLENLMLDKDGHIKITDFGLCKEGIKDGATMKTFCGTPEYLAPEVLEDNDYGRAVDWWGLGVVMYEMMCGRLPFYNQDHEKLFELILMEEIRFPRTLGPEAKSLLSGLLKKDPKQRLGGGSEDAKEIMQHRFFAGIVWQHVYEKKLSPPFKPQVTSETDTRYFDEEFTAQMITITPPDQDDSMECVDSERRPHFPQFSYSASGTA

[4] = target: T1, RAC-alpha serine/threonine-protein kinase; test: Inhibition of Akt1 (unknown origin) expressed in Escherichia coli at 1 ug/ml using peptide substrate after 1 hr by HTRF assay
[5] = Inhibition of Akt in human PTEN-null LNCAP cells assessed as suppression in PRAS40 phosphorylation after 1 hr by ELISA analysis; assay type: cell-based
[6] = Inhibition of PKA (unknown origin) after 60 mins by Z-LYTE kinase assay; design: species or system Homo sapiens
[7] = target: T2, Testis-specific serine/threonine-protein kinase 1 (Mus musculus, UniProt Q61241); test: Inhibition of mouse TSSK1 by luminescent ADP-Glo assay kit
T2 sequence (Q61241 whole entry): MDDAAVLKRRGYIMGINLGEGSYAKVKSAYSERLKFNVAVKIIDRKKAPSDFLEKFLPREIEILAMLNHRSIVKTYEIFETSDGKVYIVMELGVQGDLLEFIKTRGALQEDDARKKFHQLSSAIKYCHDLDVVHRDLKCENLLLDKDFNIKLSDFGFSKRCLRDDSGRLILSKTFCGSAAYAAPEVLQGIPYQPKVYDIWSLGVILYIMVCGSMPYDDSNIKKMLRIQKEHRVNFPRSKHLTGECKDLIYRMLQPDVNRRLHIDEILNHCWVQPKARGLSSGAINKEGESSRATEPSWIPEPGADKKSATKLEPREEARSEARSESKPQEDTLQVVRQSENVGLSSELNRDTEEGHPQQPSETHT

[8] = Effect on total GAPDH levels in human PC3 cells at 1 to 10 uM after 3 hrs by western blot analysis; assay type: ADME, cell-based; settings: pc-3, 3 h
[9] = Effect on total Akt levels in human PC3 cells at 1 to 10 uM after 3 hrs by western blot analysis; assay type: ADME, cell-based; settings: pc-3, 3 h
[10] = Effect on total GSK3beta levels in human PC3 cells at 1 to 10 uM after 3 hrs by western blot analysis; assay type: ADME, cell-based; settings: pc-3, 3 h

Compound	IC50 [3] [µM]	IC50 [1] [µM]	IC50 [2] [µM]	other results
Cn1ncc(Br)c1-c1oc(C(=O)NC2(c3ccc(Cl)c(Cl)c3)CCNCC2)cc1Br		16.4	5.81	inhibition [4]: 43.5%
Cn1ncc(Cl)c1-c1c(Cl)c(C(=O)NC2(c3ccc(Cl)c(Cl)c3)CCNCC2)n(C)c1Cl	0.85	9.28	1.77	
Cn1nccc1-c1oc(C(=O)NC2(c3ccc(Cl)c(Cl)c3)CCNCC2)cc1Br		24.8	6.87	inhibition [4]: 49.4%
Cn1ncc(Cl)c1-c1cc(C(=O)N[C@H](CN)Cc2ccc(F)c(F)c2)oc1Cl [UPROSERTIB]				IC50 [5]: 0.0756 µM
CN[C@@H]1C[C@H]2O[C@@](C)([C@@H]1OC)n1c3ccccc3c3c4c(c5c6ccccc6n2c5c31)C(=O)NC4 [STAUROSPORINE]				IC50 [6]: 0.0082 µM; IC50 [7]: 0.00033 µM
Cn1nccc1-c1csc(C(=O)NC2(c3ccc(Cl)c(Cl)c3)CCNCC2)c1	0.071	3.92	1.61	
NC1(C(=O)N[C@@H](CCO)c2ccc(Cl)cc2)CCN(c2nc[nH]c3nccc2-3)CC1 [CAPIVASERTIB]		5.2	7.27	IC50 [5]: 0.337 µM
Cn1ncc(Cl)c1-c1cc(C(=O)NC2(c3ccc(Cl)c(Cl)c3)CCNCC2)oc1Cl	0.061	7.76	9.76	Activity [8]: Non-toxic; Activity [9]: Non-toxic; IC50 [5]: 0.0304 µM; Activity [10]: Non-toxic
Cn1ncc(Cl)c1-c1ccc(C(=O)NC2(c3ccc(Cl)c(Cl)c3)CCNCC2)cc1	1.91	11.9	5.21	
Cn1ncc(Br)c1-c1cc(C(=O)NC2(c3ccc(Cl)c(Cl)c3)CCNCC2)n(C)c1Br		7.75	4.7	inhibition [4]: 30.3%

Further lines, with some results ahead:

IC50 [3] [µM]	Compound	IC50 [1] [µM]	IC50 [2] [µM]	other results
0.39	Cn1ncc(Cl)c1-c1cc(C(=O)NC2(c3ccc(F)cc3)CCNCC2)oc1Cl	6.47	4.81	
0.92	Cn1ncc(Cl)c1-c1coc(C(=O)NC2(c3ccc(F)cc3)CCNCC2)c1	10.1	6.46	
0.44	Cn1ncc(Br)c1-c1coc(C(=O)NC2(c3ccc(Cl)c(Cl)c3)CCNCC2)c1	4	3.77	
1.26	Cn1cc(-c2c(Br)cnn2C)cc1C(=O)NC1(c2ccc(Cl)c(Cl)c2)CCNCC1	12.9	2.83	
2.02	Cn1ncc(Br)c1-c1coc(C(=O)NC2(c3ccc(F)cc3)CCNCC2)c1	18.1	20.1	
0.32	Cn1ncc(Cl)c1-c1csc(C(=O)NC2(c3ccc(F)cc3)CCNCC2)c1	18.3	8.19	
0.36	Cn1ncc(Br)c1-c1csc(C(=O)NC2(c3ccc(F)cc3)CCNCC2)c1	17.5	7.78	
1.48	Cn1ncc(Cl)c1-c1oc(C(=O)NC2(c3ccc(Cl)c(Cl)c3)CCNCC2)cc1Br	6.97	5.95	
0.92	Cn1nccc1-c1csc(C(=O)NC2(c3ccc(F)cc3)CCNCC2)c1	24.8	14.3	
1.4	Cn1ncc(Br)c1-c1ccc(C(=O)NC2(c3ccc(Cl)c(Cl)c3)CCNCC2)cc1	11	1.96	
